From publication PMC9569971, “New Oxazolo[5,4-d]pyrimidines as Potential Anticancer Agents: Their Design, Synthesis, and In Vitro Biological Activity Research” (International Journal of Molecular Sciences, 2022) come the findings set out here.

One assay concerns Caspase-3. The assay can be described thus: Human Caspase-3 (Active) ELISA Kit, HT29 lysate. To be noted: lysate of HT29 cells treated with 3g; SD ±3.03. In kind it is cell-based. How it is done:
The test was performed on an HT29 colon adenocarcinoma cell line lysate treated with compound 3g. Cells from the HT29 line were harvested by centrifugation (non-adherent cells) and scraping from the culture flasks (adherent cells), and then the cells were washed twice with cold PBS. The supernatant was removed and discarded, and cell pellets were collected. The cell pellets were then lysed in a cell extraction container for 30 min on ice and […]. The lysate was transferred to microcentrifuge tubes and centrifuged at 13,000 rpm for 10 min at 4 °C. The supernatant was transferred to clean microcentrifuge tubes. Caspase-3 standard (active) was prepared from recombinant protein. The caspase-3 standard was reconstituted with the standard solvent solution at a concentration of 2.5 ng/mL. The contents were swirled and then left for 10 min to ensure complete dissolution. […]
In this method, a monoclonal capture antibody specific to caspase-3 (cleaved) was coated onto the wells of a 96-well plate. […] The absorbance at 450 nm was read for […] after the stop solution was added. […] Concentrations for unknown samples and controls were read from the standard curve. The intensity of the colored product was directly proportional to the concentration of the target protein present in the original specimen, and the optical density was read on a microplate reader. […]
In general terms: In an ELISA, binding on a coated surface is turned into a signal by an enzyme label.

Assay [1] relates to HT29 primary colon adenocarcinoma cells. The assay can be described thus: Detection of apoptosis (Annexin V FITC / propidium iodide). In kind it is cell-based, human. Set-up: unit not given here. To be noted: 24 h. Summed up:
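After 24 h growth at 30,000 cells/well, HT29 cells were treated with compound at 1, 2, 5 and 10 µM for 24 h. They were then stained with Annexin V-FITC/propidium iodide in PBS with Mg²⁺/Ca²⁺ for 20 min at 37 °C.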

The structures appear in SMILES notation.

Regarding `Cc1noc(N)c1-c1nc2c(NCCCN(C)C)ncnc2o1` [Compound 3g, 2-(5-Amino-3-methylisoxazol-4-yl)-7-N-[3-(N,N-dimethylamino)propyl]aminooxazolo[5,4-d]pyrimidine], the Caspase-3 concentration in the assay on Caspase-3 was 12.27 [ng/mL]. In addition, in assay [1] (1 μM), the apoptosis mean is 3.74, the late apoptosis mean stood at 8.08, the necrosis mean is on record as 11.28 and the “percent live (viable) cells” value was 76.90. Also, in assay [1] (2 μM), the apoptosis mean is listed as 9.72, the late apoptosis mean turned out to be 9.30, the necrosis mean is given as 6.34 and the “percent live (viable) cells” value was 74.65. Besides, in assay [1] (5 μM), the apoptosis mean is given as 51.54, the late apoptosis mean turned out to be 23.48, the necrosis mean turned out to be 1.18 and the “percent live (viable) cells” value is on record as 23.81. Besides, in assay [1] (10 μM), the apoptosis mean is listed as 45.24, the late apoptosis mean is 29.23, the necrosis mean was 0.90 and the “percent live (viable) cells” value is on record as 24.62.
